Earlier results as cited in patent US20060240399A1, “Long-term shelf preservation of cells and multicellular specimens by vitrification” (priority 1999, published 2006).

tested on: Drosophila melanogaster embryos; details: co-solute added to vitrification solution

Compound	effect on ethylene glycol permeation inside embryos
NCC(=O)O [glycine]	significantly diminished
OC[C@@H](O)[C@@H](O)[C@H](O)[C@@H](O)CO [sorbitol]	significantly diminished
N[C@@H](CCC(=O)O)C(=O)O [glutamic acid]	significantly diminished
